In US20210308101A1, “METHODS OF TREATING FIBROMYALGIA” (Aptinyx Inc., priority 2019, published 2021):
Entries after “also recorded” stand apart in the source; their conditions may differ.

Key:
Format in all cases: in vivo, human
[1] = test system: subjects with fibromyalgia; assay: QST: digital algometer pressure pain threshold (trapezius, wrist, patella)
Protocol: Localized pressure pain sensitivity was also measured bilaterally at 3 additional body regions: trapezius, wrist, and patella. Examination of multiple sites across all quadrants of the body permitted analysis of the distribution of pain sensitivity. Sensitivity was measured using a digital algometer with a 1-cm^2 flat rubber probe. […] Measurements were conducted 2 to 3 times (15- to 20-second intervals) at each site.
QST data were analyzed at the University of Michigan CPFRC. Dependent variables were the MAST derived outcomes (Pain50, pressure pain threshold, pain tolerance, and pain ratings at 2 kg/cm2), algometry-derived pressure pain thresholds (mean of three trials) at each anatomical site, average cuff intensity ratings (mean of ratings at all stimulus levels during the ascending or random sequences), and average visual task unpleasantness and brightness intensity ratings (mean of ratings at all stimulus levels). Practice data were not analyzed. Overall pain intensity and unpleasantness NRS scores as well as stimulus response curves for each test were assessed during post hoc analyses. Data points displaying measurement artefacts, including device malfunction or user error, were set to missing. Single subject QST variables were analyzed using paired t-tests and/or nonparametric Wilcoxon signed-rank tests in SPSS or R.

[2] = test system: dorsal anterior cingulate cortex Glx; assay: 1H-MRS Glx levels, dorsal anterior cingulate cortex
Source text: As used herein, “^1H-MRS” is Magnetic Resonance Spectroscopy (1H-MRS) or Proton Magnetic Resonance Spectroscopy. Proton magnetic resonance spectroscopy is a noninvasive imaging technique that allows in vivo determination of biochemical parameters within brain tissue. Proton magnetic resonance spectroscopy data were used to collect brain neurotransmitter levels of Glu and combined glutamate+glutamine metabolites (Glx). This method provides metrics amenable to longitudinal studies such as those proposed here. High-resolution anatomical scans can isolate identical brain structures within individuals over time, thus minimizing error that otherwise would occur because of slight differences in voxel location from 1 evaluation to the next. Previous ^1H-MRS studies have utilized this approach to examine changes in the levels of CNS metabolites in test-retest studies of drug effects. […]
Raw data from each single-voxel spectroscopy sequence underwent manual post-processing using ^1H-MRS software (LCModel; Stephen Provencher, Oakville, Ontario, Canada). […] Glx values were calculated as an absolute concentration using the water signal for normalization or as a ratio to creatine. […]
The analysis visit comparisons stated were analyzed using paired t-tests and/or nonparametric Wilcoxon signed-rank tests of Glx levels at each voxel independently in SPSS. […]

[3] = test system: subjects with fibromyalgia; assay: Safety evaluation in the fibromyalgia study; settings: 20 mg then 200 mg PO QD, 2 weeks each
Source text: Adverse events (AEs), vital signs, electrocardiograms, physical examinations, Columbia Suicide Rating Scales, and clinical laboratory samples were collected throughout the study.
• Adverse events • Vital sign measurements • Clinical laboratory test results • Electrocardiogram results • Physical examination findings • Columbia-Suicide Severity Rating Scale (C-SSRS)

[4] = test system: resting state network connectivity; assay: rs-fcMRI group independent component analysis (DMN, SLN, DAN)
Protocol: In order to quantify intrinsic brain connectivity, rs-fcMRI data were analyzed with both dual-regression ICA and seed-voxel approaches. These approaches are complementary, as they quantify intrinsic brain connectivity on a network level (dual regression probabilistic ICA) and a more specific region-focused level (seed-voxel).
Resting state functional connectivity MRI data were preprocessed and analyzed using statistical parametric mapping software package Version 12, the CONN functional connectivity toolbox, and the GIFT toolbar, all running on MATLAB Version 9.2 or later. Upon collection of rs-fcMRI data, physiological artifacts were first removed using a custom MATLAB algorithm and slice-time corrected using Functional Magnetic Resonance Imaging of the Brain Software Library software. Preprocessing steps included motion correction, realignment, registration, normalization to standard Montreal Neurological Institute template, and smoothing (full width at half maximum Gaussian kernel of 6 or 8 mm).
Group ICA was performed using the GIFT toolbar and component estimates were validated using Icasso software for 10 iterations. The number of independent components was limited to 25 to minimize splitting into subcomponents. Subject-specific spatial maps and time courses were back reconstructed using spatiotemporal regression and dual regression in GIFT. As for seed-based analyses, individual maps were passed onto group second level analyses in statistical parametric mapping, where differences in resting state network connectivity between placebo and drug images were performed.
Several analyses were conducted with the fMRI resting state and task data. Results were assessed by: 1) a primary analysis, where a finding was deemed significant with a corrected cluster level p<0.05, derived from an uncorrected voxel-wise p<0.001, and 2) an exploratory analysis, where a finding was deemed significant with an uncorrected voxel-wise p<0.005 and having a cluster greater than or equal to 80 contiguous voxels. Results that met significance in the primary analyses had connectivity values extracted and imported into SPSS v25 where paired t-tests were performed to assess for potential outliers contributing to the finding. Remaining data were then correlated with clinical measures using parametric bivariate Pearson correlations. Results were deemed significant at p<0.05.
Group ICA was performed (n=18) for the resting state scan, and the network components for the Default Mode Network, the Salience Network, and the Dorsal Attention Network were computed. […] With the exploratory analyses, resting state connectivity was decreased from the placebo visit to the NYX-2925 200 mg visit (placebo >NYX-2925 200 mg) between the Default Mode Network and the left mid cingulate cortex. […] In exploratory analyses, resting state functional connectivity was decreased from the placebo visit to the NYX-2925 200 mg visit (placebo >NYX-2925 200 mg) between the Salience Network and the right putamen/thalamus. Here, augmented connectivity between Salience Network, a network comprised of pronociceptive regions, and putamen and thalamus, regions also involved in nociception, was decreased following treatment with NYX-2925.

[5] = exploratory, placebo visit to NYX-2925 200 mg visit

CC(C)C(=O)N1CCC[C@]12CN([C@H](C(N)=O)[C@@H](C)O)C2=O [NYX-2925, (2S, 3R)-3-hydroxy-2-((R)-5-isobutyryl-1-oxo-2,5-diazaspiro[3.4]octan-2-yl)butanamide]
right trapezius pressure pain threshold ([1]; 200 mg, placebo 1.77±1.53, p=0.047): 1.58±1.37 kgf/cm^2
left wrist pressure pain threshold ([1]; NYX-2925 20 mg, baseline 1.60±1.11, p=0.042): 1.30±1.08 kgf/cm^2
right wrist pressure pain threshold ([1]; NYX-2925 20 mg, baseline 1.64±1.30, p=0.021): 1.28±1.10 kgf/cm^2
right wrist pressure pain threshold ([1]; NYX-2925 200 mg, baseline 1.64±1.30, p=0.042): 1.32±1.15 kgf/cm^2
dACC resting Glx (concentrations and ratios to creatine) ([2]; NYX-2925 20 mg vs placebo, p<0.05): statistically significant reductions of Glx levels; also recorded: decreased resting Glx
dACC mean Glx levels ([2]; NYX-2925 200 mg vs placebo): No significant decrease; also recorded: No effect
discontinuations due to treatment-emergent adverse events (TEAE) [3]: no discontinuations
safety and tolerability [3]: safe and well tolerated
serious adverse events [3]: No serious adverse events
connectivity Default Mode Network - left mid cingulate cortex [4, 5]: decreased
connectivity Salience Network - right putamen/thalamus [4, 5]: decreased
Salience Network connectivity ([4]; primary analysis): No results met significance
Default Mode Network connectivity ([4]; primary analysis, n=18): No results met significance
Dorsal Attention Network connectivity ([4]; primary and exploratory analyses): no significant results
